Tested on: Unknown protein yeast genes
Test: DNA chip mRNA expression in yeast, unknown protein yeast genes (Table 1)
Format: cell-based, Saccharomyces cerevisiae S288C
Experimental: Yeast (Saccharomyces cerevisiae S288C (α SUC2mal mel gap2 CUP1)) were incubated at 25° C. on YPD medium (yeast extract 1%, polypepton 2%, glucose 2%). One of toxic chemical substances was added to the cells at logarithmic growth phase, and the cells were further incubated for two hours. Cells were cultured without any chemical substance in the same condition, and were used as control. Concentrations of the chemical substances were defined to inhibit the growth of the yeast but not lead to death.
After completion of the incubation, the culture was centrifuged to collect the cells. To the cells, sodium acetate buffer (50 mM sodium acetate, 10 mM EDTA, 1% SDS) was added, and the mixture was shaken at 65° C. for five minutes, followed by returning to room temperature, and obtaining the supernatant, of which the procedures were repeated two times. To the supernatant, ½ amount of a solution of phenol/chloroform was added, and the mixture was centrifuged to give a supernatant, which was added with an equal amount of chloroform, and the mixture was centrifuged to give a supernatant. To the supernatant, an equal amount of isopropanol containing 0.3 M sodium acetate was added, and the mixture was allowed to stand at room temperature for 30 minutes, after which the mixture was centrifuged to give a sediment of the whole RNAs. Seventy % ethanol was added to the sediment, and the mixture was again centrifuged to give a sediment, which was then dried and dissolved in water. mRNA was isolated from the whole RNAs as followings. In view of the fact that a poly A chain is attached to the 3′ terminus of mRNA, a polynucleotide having a poly T structure which was immobilized on the surface of latex beads was used to trap the mRNA, and then the mRNA was washed and eluted with spine column (Oligotex-dT30<Super>mRNA Purification Kit, Takara). Reverse transcription of the mRNA was conducted with a reverse transcriptase (Super Script II Reverse Transcriptase; catalogue No. 18064-014, GibcoBRL) using fluorescence-labeled nucleotides to give cDNAs that were introduced with Cy3-dUTP or Cy5-dUTP during the reverse transcription.
The labeled cDNAs were dissolved in TE buffer (10mM Tris-HCl/1 mM EDTA, pH8.0), and the solution was dropped on the DNA chip containing the whole genes of yeast (DNA Chip Research Inc. Japan) so that the cDNAs were hybridized on the DNA chip at 65° C. for over 12 hours. The fluoresces intensity of the DNA chip was read with a scanner, and the ratio relative to the fluorescence intensity resulting from the absence of chemical substance was estimated as the following, which is shown in Tables 1 to 9: […]

[Cl][Cd][Cl] [(2), CdCl2]
The level of expressed mRNA in the presence of chemical substance/The level of expressed mRNA in the absence of chemical substance (yeast gene YKL195W, incubated two hours with chemical substance): 0.5 | The level of expressed mRNA in the presence of chemical substance/The level of expressed mRNA in the absence of chemical substance (yeast gene YKR091W, incubated two hours with chemical substance): 2.3 | The level of expressed mRNA in the presence of chemical substance/The level of expressed mRNA in the absence of chemical substance (yeast gene YLR054C, incubated two hours with chemical substance): 1.5 | The level of expressed mRNA in the presence of chemical substance/The level of expressed mRNA in the absence of chemical substance (yeast gene YLR149C, incubated two hours with chemical substance): 1.9 | The level of expressed mRNA in the presence of chemical substance/The level of expressed mRNA in the absence of chemical substance (yeast gene YLR152C, incubated two hours with chemical substance): 1.3 | The level of expressed mRNA in the presence of chemical substance/The level of expressed mRNA in the absence of chemical substance (yeast gene YLR194C, incubated two hours with chemical substance): 2.2 | The level of expressed mRNA in the presence of chemical substance/The level of expressed mRNA in the absence of chemical substance (yeast gene YLR324W, incubated two hours with chemical substance): 1.2 | The level of expressed mRNA in the presence of chemical substance/The level of expressed mRNA in the absence of chemical substance (yeast gene YLR350W, incubated two hours with chemical substance): 1.9 | The level of expressed mRNA in the presence of chemical substance/The level of expressed mRNA in the absence of chemical substance (yeast gene YLR387C, incubated two hours with chemical substance): 1.6 | The level of expressed mRNA in the presence of chemical substance/The level of expressed mRNA in the absence of chemical substance (yeast gene YLR460C): 2.1 | The level of expressed mRNA in the presence of chemical substance/The level of expressed mRNA in the absence of chemical substance (yeast gene YML117W, incubated two hours with chemical substance): 2.2 | The level of expressed mRNA in the presence of chemical substance/The level of expressed mRNA in the absence of chemical substance (yeast gene YMR009W, incubated two hours with chemical substance): 1.9 | The level of expressed mRNA in the presence of chemical substance/The level of expressed mRNA in the absence of chemical substance (yeast gene YMR067C, incubated two hours with chemical substance): 0.9 | The level of expressed mRNA in the presence of chemical substance/The level of expressed mRNA in the absence of chemical substance (yeast gene YMR090W): 9.5 | The level of expressed mRNA in the presence of chemical substance/The level of expressed mRNA in the absence of chemical substance (yeast gene YMR095C, incubated two hours with chemical substance): 2.0 | The level of expressed mRNA in the presence of chemical substance/The level of expressed mRNA in the absence of chemical substance (yeast gene YMR097C, incubated two hours with chemical substance): 1.0 | The level of expressed mRNA in the presence of chemical substance/The level of expressed mRNA in the absence of chemical substance (yeast gene YMR102C, incubated two hours with chemical substance): 2.9 | The level of expressed mRNA in the presence of chemical substance/The level of expressed mRNA in the absence of chemical substance (yeast gene YMR107W, incubated two hours with chemical substance): 3.9 | The level of expressed mRNA in the presence of chemical substance/The level of expressed mRNA in the absence of chemical substance (yeast gene YMR180C, incubated two hours with chemical substance): 0.9 | The level of expressed mRNA in the presence of chemical substance/The level of expressed mRNA in the absence of chemical substance (yeast gene YMR184W, incubated two hours with chemical substance): 5.4 | The level of expressed mRNA in the presence of chemical substance/The level of expressed mRNA in the absence of chemical substance (yeast gene YMR191W, incubated two hours with chemical substance): 2.4 | The level of expressed mRNA in the presence of chemical substance/The level of expressed mRNA in the absence of chemical substance (yeast gene YMR295C, incubated two hours with chemical substance): 1.0 | The level of expressed mRNA in the presence of chemical substance/The level of expressed mRNA in the absence of chemical substance (yeast gene YMR316W, incubated two hours with chemical substance): 2.9 | The level of expressed mRNA in the presence of chemical substance/The level of expressed mRNA in the absence of chemical substance (yeast gene YNL044W, incubated two hours with chemical substance): 0.9 | The level of expressed mRNA in the presence of chemical substance/The level of expressed mRNA in the absence of chemical substance (yeast gene YNL074C, incubated two hours with chemical substance): 1.3 | The level of expressed mRNA in the presence of chemical substance/The level of expressed mRNA in the absence of chemical substance (yeast gene YNL092W, incubated two hours with chemical substance): 1.4 | The level of expressed mRNA in the presence of chemical substance/The level of expressed mRNA in the absence of chemical substance (yeast gene YNL115C, incubated two hours with chemical substance): 1.8 | The level of expressed mRNA in the presence of chemical substance/The level of expressed mRNA in the absence of chemical substance (yeast gene YNL156C, incubated two hours with chemical substance): 1.2 | The level of expressed mRNA in the presence of chemical substance/The level of expressed mRNA in the absence of chemical substance (yeast gene YNL234W, incubated two hours with chemical substance): 1.1 | The level of expressed mRNA in the presence of chemical substance/The level of expressed mRNA in the absence of chemical substance (yeast gene YNL281W, incubated two hours with chemical substance): 1.3 | The level of expressed mRNA in the presence of chemical substance/The level of expressed mRNA in the absence of chemical substance (yeast gene YNL305C, incubated two hours with chemical substance): 2.2 | The level of expressed mRNA in the presence of chemical substance/The level of expressed mRNA in the absence of chemical substance (yeast gene YNR068C, incubated two hours with chemical substance): 1.5 | The level of expressed mRNA in the presence of chemical substance/The level of expressed mRNA in the absence of chemical substance (yeast gene YOL032W, incubated two hours with chemical substance): 0.8 | The level of expressed mRNA in the presence of chemical substance/The level of expressed mRNA in the absence of chemical substance (yeast gene YOL036W, incubated two hours with chemical substance): 0.9 | The level of expressed mRNA in the presence of chemical substance/The level of expressed mRNA in the absence of chemical substance (yeast gene YOL047C, incubated two hours with chemical substance): 1.1 | The level of expressed mRNA in the presence of chemical substance/The level of expressed mRNA in the absence of chemical substance (yeast gene YOL071W, incubated two hours with chemical substance): 2.0 | The level of expressed mRNA in the presence of chemical substance/The level of expressed mRNA in the absence of chemical substance (yeast gene YOL082W, incubated two hours with chemical substance): 1.6 | The level of expressed mRNA in the presence of chemical substance/The level of expressed mRNA in the absence of chemical substance (yeast gene YOL083W, incubated two hours with chemical substance): 2.3 | The level of expressed mRNA in the presence of chemical substance/The level of expressed mRNA in the absence of chemical substance (yeast gene YOL117W, incubated two hours with chemical substance): 1.1 | The level of expressed mRNA in the presence of chemical substance/The level of expressed mRNA in the absence of chemical substance (yeast gene YOL131W, incubated two hours with chemical substance): 1.5 | The level of expressed mRNA in the presence of chemical substance/The level of expressed mRNA in the absence of chemical substance (yeast gene YOL150C): 3.7 | The level of expressed mRNA in the presence of chemical substance/The level of expressed mRNA in the absence of chemical substance (yeast gene YOL162W, incubated two hours with chemical substance): 6.9 | The level of expressed mRNA in the presence of chemical substance/The level of expressed mRNA in the absence of chemical substance (yeast gene YOR019W, incubated two hours with chemical substance): 1.2 | The level of expressed mRNA in the presence of chemical substance/The level of expressed mRNA in the absence of chemical substance (yeast gene YOR197W, incubated two hours with chemical substance): 1.0 | The level of expressed mRNA in the presence of chemical substance/The level of expressed mRNA in the absence of chemical substance (yeast gene YPL087W, incubated two hours with chemical substance): 5.1 | The level of expressed mRNA in the presence of chemical substance/The level of expressed mRNA in the absence of chemical substance (yeast gene YPL196W, incubated two hours with chemical substance): 1.6 | The level of expressed mRNA in the presence of chemical substance/The level of expressed mRNA in the absence of chemical substance (yeast gene YPL206C, incubated two hours with chemical substance): 2.9 | The level of expressed mRNA in the presence of chemical substance/The level of expressed mRNA in the absence of chemical substance (yeast gene YPL222W, incubated two hours with chemical substance): 3.5 | The level of expressed mRNA in the presence of chemical substance/The level of expressed mRNA in the absence of chemical substance (yeast gene YPR023C, incubated two hours with chemical substance): 1.4 | The level of expressed mRNA in the presence of chemical substance/The level of expressed mRNA in the absence of chemical substance (yeast gene YPR151C, incubated two hours with chemical substance): 2.0
